Three molecules from patent publication US20060029563A1, “Cutanceous metabolic bio-activator” (Jean-Noel Thorel, priority 2002, published 2006) can be followed below.

The nature of series [1]: prior cell viability test on normal human keratinocytes. Type of series: cell-based. Conditions: after 48 h of contact, highest 2 concentrations, 0.0001% and 0.01%. The method, then:
In order to determine the concentrations applicable in the context of the trial, a prior cell viability test is carried out on normal human keratinocytes.
L-citrullyl-L-arginine is dissolved in water and the final concentration is fixed at 0.1%.
6 dilutions of L-citrullyl-L-arginine from 10^−4% to 10^−2% are brought into contact with the cells for 24 h and 48 h. A “water” condition is realized as a control.
For the trial, the L-citrullyl-L-arginine will be tested at the highest 2 concentrations that allow the cell viability to be maintained at a level greater than 80%, after 48 h of contact, i.e. 0.0001% and 0.01%.

Series [2] relates to HaCaT cells. Put plainly: growth of HaCaT cells, WST-1 conversion method. Type of series: cell-based, human. On the procedure: The objective of this trial is to evaluate the effect of the combination ATP+peptides, added to a culture medium, on the growth of an immortalized line of human […], HaCaT cells.
The study is carried out on a culture prepared in the standard culture medium for HaCaT cells, DMEM (Sigma) in the presence of fetal calf serum (SVF) at 2 or 10%.
The HaCaT cells are seeded at low density in a 96-well plate in the standard medium (DMEM+10% SVF) and grow for 24 h after seeding in this medium.
On the 2nd day, the cells are placed under the various conditions studied.
The test concentrations in terms of ATP, β-alanyl-L- histidine (Carnosine) and L-citrullyl-L-arginine (exsy- algine) are determined subsequent to preliminary cytotoxicity studies.
The following conditions are prepared: • A control condition: culture medium alone+SVF • A condition consisting of β-alanyl-L-histidine alone at 0.5%. • A condition consisting of L-citrullyl-L-arginine are known at 0.5%. • A condition consisting of ATP alone at 1 μg/ml. • A condition consisting of ATP (1 μg/ml)+β-alanyl-L-histidine (0.5%). • A condition consisting of ATP (1 μg/ml)+L-citrullyl-L-arginine (0.5%) • A condition consisting of ATP (1 μg/ml)+β-alanyl-L-histidine (0.5%)+L- citrullyl-L-arginine (0.5%).
These various conditions are prepared both in the DMEM containing 2% SVF and the DMEM containing 10% SVF.
Each condition is prepared in triplicate. The media are not renewed in the course of the experiment.
The cell density is evaluated 24 h after seeding of the cells, before the cells are brought into contact with the various study conditions (=T0), and the growth of the HaCaT cells is then evaluated on the 2nd, 5th and 7th days of culture by means of the WST-1 conversion method (reading at 450 nm).
The cell growth is objectified by measuring the cell viability at various times of the experiment. The results obtained give the percentage cell viability calculated with respect to the initial cell density at T0, for which it is estimated that the cell density is equal to 100%. The effects of the various products on cell growth are analyzed at the various times of the experiment, relative to the nontreated control at the same time of the experiment.

Series [3] deals with secretion of endothelin-1 by normal human keratinocytes. Put plainly: endothelin-1 secretion by keratinocytes (ELISA), nonirradiated or after UV B irradiation. The class given is cell-based. Conditions: for increase in the basal secretion of endothelin-1 compared with the water control: nonirradiated. On the procedure:
The trial is carried out on an in vitro culture of normal human keratinocytes seeded at a density of 10^5 cells/well in 6-well plates.
The keratinocytes, seeded in 6-well plates at a density of 10^5 cells/well, are cultured in standard medium (Epilife Sigma) for 48 h. Before irradiation, the culture medium is removed, the cells are rinsed with PBS buffer, and 1 ml thereof is left in contact with the cells for the irradiation. The keratinocytes are subjected to a UV B irradiation (312 nm) of 20 mJ/cm^2. An identical nonirradiated condition is realized in parallel.
After irradiation (and on the nonirradiated parallel), the PBS is removed and the cells are placed under the various conditions studied: • control of water in the culture medium, […]
Each condition is realized in triplicate.
After contact for 24 h or 48 h after irradiation, the conditioned culture supernatants are recovered. The amount of endothelin-1 secreted by the keratinocytes is measured on 100 μl of supernatant by means of an ELISA technique (R&D Systems, Abingdon, UK). The endothelin-1 levels are calculated by means of the standard curve prepared with synthesized human endothelin-1. The results are expressed in pg of endothelin-1 standardized with respect to the protein concentration (pg ET-1/mg of proteins).

Series [4] relates to normal human melanocytes. Kind of series: comet assay on UVA-irradiated normal human melanocytes. Type of series: cell-based. Conditions: 4 mM each. The method, then: Cultures of normal human melanocytes (MHNs) are prepared from fore skins of infants and of newborns suffering from phimosis. The melanocytes obtained from skin fragments are placed in MCDB 153 medium (Sigma St Louis, Mo., USA) supplemented with 30 μg/ml of bovine pituitary extract (BPE) (Life Technologies, Paisley, England), 2% of fetal calf serum (SVF) (Dominique Dutscher, Brumath, France), 16 nM of phorbol-12-myristate-13-acetate (Sigma), 5 μg/ml of insulin and 1.1 μM of hydrocortisone (Sigma). The cultures are maintained in an incubator at 37° C. and-in-an atmosphere containing 5% CO2. Pure cultures of melanocytes are obtained after 2 to 3 weeks.
All the compositions tested are solubilized in DMSO at the maximum concentrations permitted. Preliminary trials are carried out in order to determine the subtoxic concentrations on the keratinocytes. The final concentration of DMSO is always less than 2%.
The melanocytes are brought into contact with the product for 30 min at 37° C., and are then irradiated with UVA radiation. The UVA irradiations are generated by means of a Bio-Sun UV-irradiator (Vilbert Lourmat, Marne la Vallée). This device is equipped with monochromatic lamps that emit a wavelength of 312 nm and/or 365 nm. The lamps deliver a calculated energy by means of an RMW-365/312 radiometer. The energies delivered are 0.8 J/cm^2 for the UVA range. The “comet” assay is carried out immediately after exposure. Two types of controls are included in these experiments: • negative controls: melanocytes that are not treated but […]; melanocytes treated for 30 min with the composition tested, but not irradiated. • Positive control: melanocytes that are not treated but are irradiated.
After treatment with a typsin/EDTA mixture (0.05%/0.02%) for 2 to 3 minutes, the cultures are 15 recovered by centrifugation and placed in PBS buffer without Ca++ and without Mg++ (Sigma). Following a second centrifugation, the cells (4.5-5.0×10^4 cells) are suspended in 0.5% low melting point (LMP) agarose (Sigma). The mixture is directly deposited onto microscope slides coated with a prelayer of agarose (1.6%) dried overnight at ambient temperature and freshly precoated with a second layer of agarose (0.8%).
The protocol for the comet assay is that of De Meo et al., incorporating the “dry slide” technique. After the irradiations, the slides are placed in a lysis bath (2.5 M NaCl, 100 mM Na2EDTA, 10 mM Tris-HCl, pH 10, 1% of sodium sarcosinate, 1% of triton X-100 and 10% of DMSO). The cell lysis is performed at 4° C. for 60 minutes, followed by denaturation of the DNA at ambient temperature for 20 min in a strongly alkaline solution (1 mM Na2EDTA and 300 mM NaOH, pH>13.0). After electrophoresis (25 V, 300 mA) for 20 min., the slides are neutralized with the Tris-HCl buffer (0.4 M; pH 7.4) and dehydrated in absolute ethanol or methanol.
The slides are stained with ethidium bromide solution (75 μl of 2 μg/ml) and observed using a BH2-RFL fluorescence microscope (Olympus, Japan) equipped with a 20BG-W dichroic filter (excitation: 515-560 nm; emission: 590 nm) and with an Apo D-Plan 20× objective. The image analysis is carried out with a high sensitivity monochrome CCD camera (Cohu 4912-5000) coupled to a Matrox IP-8 acquisition board. The entire assembly is controlled by means of the Fenestra Komet software (Kinetic Imaging, Liverpool, UK, version 3.1).
A total of 100 cells per sample (50 cells/slide) is analyzed. The parameter used is “tail DNA”, which is defined as the percentage of DNA in the tail of the “comet”. For each series of experiments, a negative control (nonirradiated cells) and a positive control (irradiated cells without composition tested) are included.
Nonlinear regressions based on a χ^2 function are calculated directly from the TM (tail moment) distribution frequencies for each sample. Specifically, Bauer et al. have recently shown that these distributions follow a χ^2 function. […]

[5] abbreviates: NI: nonirradiated melanocytes pretreated 30 min.
The mark [6] stands for this setting: melanocytes irradiated with UVA (0.8 J/cm^2), pretreated 30 min.

Molecules are shown by their SMILES. Where a SMILES comes first, the peptide text is derived from it. [ ]: non-standard residue; d: D form. Cit = NC(=O)NCCC[C@H](N)C(=O)O

`N=C(N)NCCC[C@H](NC(=O)[C@@H](N)CCCNC(N)=O)C(=O)O` [L-citrullyl-L-arginine] (H-[Cit]-Arg-OH) gave a viability at 48 h in series [1] of more than 80%. Further, the “cell growth relative to the nontreated control” value in series [2] (after 2 days of culture, 0.1% and 0.5%) is given as “+5%”. The “effect on cell viability / growth (in words)” value in series [2] (after 5 days of culture) is recorded as “does not stimulate cell growth”. For the same molecule, in series [3] (0.01%, conclusion), the “effect on the secretion of endothelin-1 (in words)” value is on record as “considerable activating effect”. The “increase in secretion of endothelin-1 compared with the irradiated water control” value is 6% in series [3] (UV B 20 mJ/cm^2, 24 h, 0.0001%); 28% in series [3] (UV B 20 mJ/cm^2, 24 h, 0.001%); 4% in series [3] (UV B 20 mJ/cm^2, 48 h, 0.0001%); 63% in series [3] (UV B 20 mJ/cm^2, 48 h, 0.01%). The “increase in the basal secretion of endothelin-1 compared with the water control” value is on record as 20% in series [3] (24 h, 0.0001%); 70% in series [3] (24 h, 0.01%); 26% in series [3] (48 h, 0.0001%); 82% in series [3] (48 h, 0.01%). In addition, the “OTM-χ^2” value in series [4] (setting [5]) stood at 2.06 ± 0.02; in series [4] (setting [6]) it was 2.22 ± 0.20. The “Degree of protection (%)” value in series [4] (setting [6]) amounted to 67.7%.
In the case of `Nc1ncnc2c1ncn2[C@@H]1O[C@H](COP(=O)(O)OP(=O)(O)OP(=O)(O)O)[C@@H](O)[C@H]1O` [ATP, adenosine triphosphate], in series [2] (ATP alone, after 2 to 5 days of contact), the “change in cell viability” value is recorded as −5 to −10%. Further, the “effect on cell viability (in words)” value in series [2] (after 2 days of culture, ATP 1 μg/ml) was “substantially decreases cell viability”. Also, the “effect on cell viability / growth (in words)” value in series [2] (after 5 days of culture) is “substantially decreases cell viability”. Besides, the “effect on endothelin-1 synthesis (in words)” value in series [3] (ATP alone) is given as “do not show any effect”. The results for the “OTM-χ^2” value in series [4] (setting [5]) and in series [4] (setting [6]) were 2.08 ± 0.02 and 6.31 ± 0.38, respectively. Also, in series [4] (setting [6]), the “Degree of protection (%)” value was found to be 14.6%.
`NCCC(=O)N[C@@H](Cc1c[nH]cn1)C(=O)O` [β-alanyl-L-histidine]: the “effect on cell growth (in words)” value in series [2] (after 2 days of culture, 0.1%) is listed as “no effect on growth”. Further, the “cell growth relative to the nontreated control” value in series [2] (after 2 days of culture, 0.5%, 2% SVF) is on record as “+22%”; in series [2] (after 5 days of culture, 0.5%) it was “+12%”. For the same molecule, the “effect on cell viability / growth (in words), conclusion” value in series [2] (conclusion of the trial, at the concentrations tested) is recorded as “exerts a stimulatory effect on cell growth”.
